Assay results taken from PubChem BioAssay (NCI).
Values joined by “and” are separate entries in the source; they are usually repeats but may differ in a detail not shown here. Equal values may be shown once.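 How tested: cells in 96-well plates exposed to compound for 48 hours at five concentrations. GI50 = concentration required for 50% inhibition of growth. TGI marks complete inhibition of growth.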

Columns and labels:
Test in all cases: DTP human tumour cell line panel, 48 h
[1] = test system: 786-0 renal
[2] = test system: A498 renal
[3] = test system: A549 NSCLC
[4] = test system: ACHN renal
[5] = test system: BT-549 breast
[6] = test system: CAKI-1 renal
[7] = test system: CCRF-CEM leukemia
[8] = test system: COLO 205 colon
[9] = test system: DU-145 prostate
[10] = test system: EKVX NSCLC
[11] = test system: HCC-2998 colon
[12] = test system: HCT-116 colon
[13] = test system: HCT-15 colon
[14] = test system: HL-60(TB) leukemia
[15] = test system: HOP-62 NSCLC
[16] = test system: HOP-92 NSCLC
[17] = test system: HS 578T breast
[18] = test system: HT29 colon
[19] = test system: IGROV1 ovarian
[20] = test system: K-562 leukemia
[21] = test system: KM12 colon
[22] = test system: LOX IMVI melanoma
[23] = test system: M14 melanoma
[24] = test system: MALME-3M melanoma
[25] = test system: MCF7 breast
[26] = test system: MDA-MB-231 breast
[27] = test system: MDA-MB-435
[28] = test system: MOLT-4 leukemia
[29] = test system: NCI-H226 lung
[30] = test system: NCI-H23 lung
[31] = test system: NCI-H460 lung
[32] = test system: NCI-H522 lung
[33] = test system: NCI/ADR-RES ovarian
[34] = test system: OVCAR-3 ovarian
[35] = test system: OVCAR-4 ovarian
[36] = test system: OVCAR-5 ovarian
[37] = test system: OVCAR-8 ovarian
[38] = test system: PC-3 prostate
[39] = test system: RPMI-8226 leukemia
[40] = test system: RXF 393 renal
[41] = test system: SF-268 CNS
[42] = test system: SF-295 CNS
[43] = test system: SF-539 CNS
[44] = test system: SK-MEL-2 melanoma
[45] = test system: SK-MEL-28 melanoma
[46] = test system: SK-MEL-5 melanoma
[47] = test system: SK-OV-3 ovarian
[48] = test system: SN12C renal
[49] = test system: SNB-19 CNS
[50] = test system: SNB-75 CNS
[51] = test system: SR leukemia
[52] = test system: SW-620 colon
[53] = test system: T-47D breast
[54] = test system: TK-10 renal
[55] = test system: U251 CNS
[56] = test system: UACC-257 melanoma
[57] = test system: UACC-62 melanoma
[58] = test system: UO-31 renal

Which results are given for `CNc1ccc2nc3ccc(=[N+](C)C)cc-3sc2c1`?
GI50 [1]: 3.84 µM and 1.27 µM; TGI [1]: 17.6 µM and 16 µM; GI50 [2]: 2.98 µM and 6.49 µM; TGI [2]: 25.4 µM and 28.2 µM; GI50 [3]: 0.417 µM and 0.338 µM; TGI [3]: 12.1 µM and 5.21 µM; GI50 [4]: 0.815 µM and 1.02 µM; TGI [4]: 10.6 µM and 4.23 µM; GI50 [5]: 4.87 µM and 5.73 µM; TGI [5]: 20.7 µM and 22.6 µM; GI50 [6]: 1.28 µM and 1.4 µM; TGI [6]: 9.17 µM and 6.02 µM; GI50 [7]: 0.432 µM and 0.489 µM; TGI [7]: 17 µM and > 100 µM; GI50 [8]: 0.626 µM and 0.365 µM; TGI [8]: 3.03 µM and 1.44 µM; GI50 [9]: 3.6 µM and 2.76 µM; TGI [9]: 16.1 µM and 11.9 µM; GI50 [10]: 4.63 µM and 0.518 µM; TGI [10]: 23.4 µM and 14.5 µM; GI50 [11]: 2.84 µM and 1.12 µM; TGI [11]: 15.9 µM and 18.6 µM; GI50 [12]: 0.304 µM and 0.246 µM; TGI [12]: 8.7 µM and 1.47 µM; GI50 [13]: 1.57 µM and 0.424 µM; TGI [13]: 18.2 µM and 16.5 µM; GI50 [14]: 0.236 µM and 0.343 µM; TGI [14]: 1.41 µM and 3.39 µM; GI50 [15]: 2.54 µM and 0.867 µM; TGI [15]: 15.7 µM and 7.92 µM; TGI [16]: 29.8 µM and 5.06 µM; GI50 [17]: 4.68 µM and 1.98 µM; GI50 [18]: 2.92 µM and 3.06 µM; TGI [18]: 12.2 µM and 12.5 µM; GI50 [19]: 2.36 µM and 1.28 µM; TGI [19]: 10.5 µM and 4.06 µM; GI50 [20]: 0.513 µM and 0.756 µM; TGI [20]: 14.1 µM and 47.4 µM; GI50 [21]: 1.15 µM and 0.651 µM; TGI [21]: 17.6 µM and 11.6 µM; GI50 [22]: 0.443 µM and 0.368 µM; TGI [22]: 4.47 µM and 2.15 µM; GI50 [23]: 1.2 µM and 0.347 µM; TGI [23]: 12 µM and 1.5 µM; GI50 [24]: 0.335 µM and 0.482 µM; TGI [24]: 2.36 µM and 1.97 µM; GI50 [25]: 0.801 µM and 0.284 µM; TGI [25]: 6.84 µM and 3.62 µM; GI50 [26]: 0.426 µM and 0.345 µM; TGI [26]: 5.59 µM and 3.63 µM; GI50 [27]: 0.547 µM and 0.785 µM; TGI [27]: 2.33 µM and 2.85 µM; GI50 [28]: 0.637 µM and 0.667 µM; TGI [28]: 12.1 µM and 9.36 µM; GI50 [29]: 2.31 µM and 2.53 µM; TGI [29]: 10.8 µM and 12.4 µM; GI50 [30]: 0.817 µM and 0.323 µM; TGI [30]: 7.91 µM and 2.75 µM; GI50 [31]: 2.32 µM and 0.879 µM; TGI [31]: 18.5 µM and 11.5 µM; GI50 [32]: 0.291 µM and 0.465 µM; TGI [32]: 1.33 µM and 3.79 µM; GI50 [33]: 0.389 µM and 0.298 µM; TGI [33]: 9.17 µM and 7.58 µM; GI50 [34]: 0.408 µM and 0.205 µM; GI50 [35]: 0.398 µM and 0.299 µM; TGI [35]: 1.74 µM and 1.9 µM; GI50 [36]: 2.85 µM and 0.514 µM; TGI [36]: 6.86 µM and 4.31 µM; GI50 [37]: 0.298 µM and 0.278 µM; TGI [37]: 1.79 µM and 1.55 µM; GI50 [38]: 0.41 µM and 0.203 µM; TGI [38]: 11.6 µM and 2.87 µM; GI50 [39]: 0.287 µM and 0.8 µM; TGI [39]: 14.6 µM and 28 µM; GI50 [40]: 3.53 µM and 5.32 µM; TGI [40]: 11.4 µM and 14.3 µM; GI50 [41]: 2.28 µM and 0.465 µM; TGI [41]: 18.7 µM and 8.7 µM; GI50 [42]: 1.35 µM and 0.411 µM; TGI [42]: 10.3 µM and 3.22 µM; GI50 [43]: 0.383 µM and 0.278 µM; TGI [43]: 2.65 µM and 1.73 µM; GI50 [44]: 1.12 µM and 1.07 µM; TGI [44]: 3.81 µM and 5.25 µM; GI50 [45]: 4.25 µM and 1.55 µM; TGI [45]: 14.8 µM and 9.27 µM; GI50 [46]: 0.212 µM and 0.263 µM; TGI [46]: 0.99 µM and 0.875 µM; GI50 [47]: 4.29 µM and 3.81 µM; TGI [47]: 18.7 µM and 19.1 µM; GI50 [48]: 1.08 µM and 0.466 µM; TGI [48]: 3.31 µM and 4.16 µM; GI50 [49]: 0.747 µM and 0.324 µM; TGI [49]: 8.83 µM and 6.11 µM; GI50 [50]: 1.89 µM and 1.34 µM; TGI [50]: 7.36 µM and 7.14 µM; GI50 [51]: 0.635 µM and 2.22 µM; TGI [51]: 12.1 µM and > 100 µM; GI50 [52]: 1.63 µM and 0.424 µM; TGI [52]: 12.5 µM and 10.5 µM; GI50 [53]: 1.86 µM and 0.489 µM; TGI [53]: 8.9 µM and 12.5 µM; GI50 [54]: 2.3 µM and 3.36 µM; TGI [54]: 7.69 µM and 14.6 µM; GI50 [55]: 0.412 µM and 0.267 µM; TGI [55]: 5.6 µM and 1.68 µM; GI50 [56]: 0.962 µM and 0.331 µM; TGI [56]: 4.52 µM and 1.91 µM; GI50 [57]: 0.799 µM and 1.1 µM; TGI [57]: 2.86 µM and 3.6 µM; GI50 [58]: 2.74 µM and 2.2 µM; TGI [58]: 19 µM and 16.3 µM
